The target in the assay is MAT2A (Homo sapiens, UniProt P31153). In words: MAT2A Biochemical Assay. As to conditions: read-out: MAT2A enzymatic IC50. The protocol:
Example A: MAT2A Biochemical Assay
Compounds described herein were tested as follows:
• (1). Prepared 1×Assay buffer. • (2). Preparation of compound concentration gradient: the compounds test condition were […], 3-fold dilution, 10 doses, singlet or duplicate. 100x concentration compounds were prepared in 384-well plate. Then used Echo 550 to transfer 250 nl to a 384-reaction plate for later use. Added 250 nl of 100% DMSO to the negative and positive control wells. • (3). Prepared 1.67× final concentration enzyme solution with 1×Assay buffer. • (4). Added 15 μl of 1.67× Enzyme solution to the compound wells and positive control wells; added 15 μl of 1×Assay buffer to the negative control wells. • (5). Centrifuged at 1000 rpm for 30 seconds and incubate for 15 minutes. • (6). Prepared 2.5× final concentration Substrate mix solution with 1×Assay buffer. • (7). Added 10 μl of 2.5× final concentration Substrate mix solution to start the reaction. • (8). Centrifuged at 1000 rpm for 30 seconds and incubate for 150 minutes. • (9). Added […] Biomol Green to stop the reaction, centrifuge at 1000 rpm for 30 seconds and incubate for 15 minutes. read O.D.620, process data.
• (1) Using GraphPad Prism 5.
[formula] • (3) Max signal was obtained from the positive control wells. • (4) Min signal was obtained from the negative control wells.

Chain of MAT2A (P31153 whole entry, species assumed): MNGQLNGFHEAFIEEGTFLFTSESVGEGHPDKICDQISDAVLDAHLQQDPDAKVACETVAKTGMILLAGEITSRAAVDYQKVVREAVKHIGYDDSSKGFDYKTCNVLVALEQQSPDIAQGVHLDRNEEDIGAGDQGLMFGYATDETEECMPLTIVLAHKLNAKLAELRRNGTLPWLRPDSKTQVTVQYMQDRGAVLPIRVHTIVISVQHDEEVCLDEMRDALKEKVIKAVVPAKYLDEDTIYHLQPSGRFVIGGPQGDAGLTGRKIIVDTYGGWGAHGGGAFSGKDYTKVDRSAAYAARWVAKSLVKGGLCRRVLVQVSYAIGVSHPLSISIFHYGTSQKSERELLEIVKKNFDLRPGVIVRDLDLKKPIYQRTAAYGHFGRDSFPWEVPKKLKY

With `C#CCNc1nc(=O)n(-c2cccnc2C)c2cc(C(F)(F)F)cc(OC)c12` [Example 36, 5-methoxy-1-(2-methylpyridin-3-yl)-4-(prop-2-yn-1-ylamino)-7-(trifluoromethyl)quinazolin-2(1H)-one], the IC50 – broadly, the midpoint of a concentration-inhibition curve – was less than 50 nM.

Source of the values: patent US20260284051A1, “METHIONINE ADENOSYLTRANSFERASE 2A (MAT2A) INHIBITOR COMBINATIONS AND USES THEREOF” (INSILICO MEDICINE IP LIMITED, priority 2023, published 2026).
